Data from patent publication US11401264B2, “Heterocyclic compound” (Orizuru Therapeutics, Inc., priority 2018, dated 2022).

Test system: cardiomyocytes from double knock-in human iPS cell lines (mCherry at TNNI3 locus)
Assay: Experimental Example 1: mCherry (TNNI3 reporter) immunostaining measured by high contents screening
Format: cell-based
Set-up: key to average fluorescent intensity (at 30 μM): —: The symbol in Table 2 means that the average fluorescent intensity cannot be evaluated due to cell decrease
Conditions: read on 8th day, Alexa 647 anti-mCherry, control well 797; for average fluorescent intensity (at 1 μM): test compound 1 μM added on 3rd and 6th culture days; for average fluorescent intensity (at 30 μM): test compound 30 μM added on 3rd and 6th culture days
Method: For detection of cardiomyocyte maturation, double knock-in human iPS cell lines, in which reporter protein sequences, EmGFP (Sequence Number 1) and mCherry (Sequence Number 2) were inserted into gene loci for TNNI1 and TNNI3, respectively, were prepared (the human iPS cells were prepared from episomal vector (loaded gene; OCT3/4, KLF4, SOX2, L-MYC, LIN28, mouse p53DD) using PBMC (LP_167, Sample ID: 20130318) purchased from CTL (reference literature; Okita K, et al. Stem Cells. 2012 Nov. 29. doi: 10.1002/stem.1293)).
The maintenance culture of the above-mentioned reporter iPS cell lines was carried out by a conventional method (Okita K, et al. Stem Cells. 2012 Nov. 29. doi: 10.1002/stem.1293).
For differentiation induction into cardiomyocytes, the reporter iPS cell lines were treated with 0.5×TrypLE select (Life Technologies, diluted in 1/2 with 0.5 mM EDTA/PBS) for 4 to 5 minutes, and the cells were exfoliated using a cell scraper (IWAKI), and then dissociated into the single cell by pipetting. The medium was removed by centrifugation (1,000 rpm, 5 min), and the obtained cells were seeded on a bioreactor (ABLE) by 1×10^7 cells per 30 mL of the bioreactor, and then cultured in a medium prepared by adding 1% L-glutamine, transferrin 150 μg/mL, ascorbic acid 50 μg/mL (Sigma), monothioglycerol 4×10^−4 M, 10 μM Rock inhibitor (Y-27632), 2 ng/mL BMP4 (R&D) and 0.5% Matrigel (Growth Factor Reduced) to a medium after removal of solution C from StemFit AK02 (AJINOMOTO AK02, 400 mL of solution A and 100 mL of B solution, total 500 mL), at 37° C., under 5% oxygen condition (55 rpm, stirred suspension culture method) to form embryoid bodies (0 day).
Next day (1st day), 9 μL (final concentration 3 ng/mL) of 10 μg/mL activin A, 15 μL (final concentration 5 ng/mL) of 10 μg/mL bFGF and […] (final concentration 10 ng/mL) of 10 μg/mL BMP4 were added to the bioreactor, and the cells were cultured at 37° C. for additional 2 days, under 5% oxygen condition.
Then (3rd day), the obtained embryoid bodies were collected in a 50 mL centrifuge tube, and then subjected to centrifugation (200 g, 1 min). The medium was removed, and the embryoid bodies were cultured in a medium prepared by adding 1% L-glutamine, transferrin 150 μg/mL, ascorbic acid 50 μg/mL (Sigma), monothioglycerol 4×10^−4 M, 10 ng/mL VEGF, 1 μM IWP-3, 0.6 μM dorsomorphin and 5.4 μM SB431542 to a medium after removal of solution C from StemFit AK02 (AJINOMOTO AK02, 400 mL of solution A and 100 mL of B solution, total 500 mL), at 37° C. for 3 days, under 5% oxygen condition (55 rpm, stirred suspension culture method).
Then (6th day), the bioreactor was left to stand to precipitate the embryoid bodies, and 80 to 90% of the medium was removed. A medium prepared by adding 1% L-glutamine, transferrin 150 μg/mL, ascorbic acid 50 μg/mL (Sigma), monothioglycerol […] and 5 ng/mL VEGF to a medium after removal of solution C from StemFit AK02 (AJINOMOTO AK02, 400 mL of solution A and 100 mL of B solution, total 500 mL) was added to the bioreactor so that the total volume became 30 mL, and the embryoid bodies were cultured for 8 days, at 37° C., under 5% oxygen condition (55 rpm, stirred suspension culture method). During the culture, the medium was replaced with a medium under the same conditions every 2 to 3 days.
14th Day after the start of the differentiation induction, the embryoid bodies were treated with 2 mg/mL collagenase type I (Sigma) for 2 hr, and then with 0.25% trypsin/EDTA (Invitrogen) for 10 min. 50% FBS/IMDM (Thermo Fisher Science) was added thereto, and the embryoid bodies were dissociated into the single cell by pipetting, and then subjected to centrifugation (1,000 rpm, 5 minutes). […]

| Compound | average fluorescent intensity (at 1 μM) | average fluorescent intensity (at 30 μM) |
| --- | --- | --- |
| CC(C)(C)OC(=O)N1CCC(c2nc3cc(N4Cc5cc(N6CCCCC6)ccc5C4=O)ccc3[nH]2)CC1 [Example 42, tert-butyl 4-(5-(1-oxo-5-(piperidin-1-yl)-1,3-dihydro-2H-isoindol-2-yl)-1H-benzimidazol-2-yl)piperidine-1-carboxylate] | 980 | 1041 |
| O=C1c2ccc(N3CCCCC3)cc2CN1c1ccc2[nH]c(C3CCOCC3)nc2c1 [Example 43, 5-(piperidin-1-yl)-2-(2-(tetrahydro-2H-pyran-4-yl)-1H-benzimidazol-5-yl)isoindolin-1-one] | 1087 | 1153 |
| O=C1c2ccc(N3CCCCC3)cc2CN1c1ccc2[nH]c(C3CCCCC3)nc2c1 [Example 44, 2-(2-cyclohexyl-1H-benzimidazol-5-yl)-5-(piperidin-1-yl)isoindolin-1-one] | 1071 | 1141 |
| O=C1c2ccc(N3CCCCC3)cc2CN1c1ccc2[nH]c(-c3ccccn3)nc2c1 [Example 47, 5-(piperidin-1-yl)-2-(2-(pyridin-2-yl)-1H-benzimidazol-5-yl)isoindolin-1-one] | 1115 | 1348 |
| CC(C)Oc1ccc(-c2nc3cc(N4Cc5cc(N6CCCCC6)ccc5C4=O)ccc3[nH]2)cc1 [Example 48, 2-(2-(4-isopropoxyphenyl)-1H-benzimidazol-5-yl)-5-(piperidin-1-yl)isoindolin-1-one] | 1182 | 1408 |
| CCCNC(=O)COc1ccc(-c2nc3cc(N4Cc5cc(N6CCOCC6)ccc5C4=O)ccc3[nH]2)cc1 [Example 49, 2-(4-(5-(5-(morpholin-4-yl)-1-oxo-1,3-dihydro-2H-isoindol-2-yl)-1H-benzimidazol-2-yl)phenoxy)-N-propylacetannide] | 1382 | 890 |
| COC(=O)COc1ccc(-c2nc3cc(N4Cc5cc(N6CCOCC6)ccc5C4=O)ccc3[nH]2)cc1 [Example 50, methyl (4-(5-(5-(morpholin-4-yl)-1-oxo-1,3-dihydro-2H-isoindol-2-yl)-1H-benzimidazol-2-yl)phenoxy)acetate] | 1126 | 1717 |
| O=C(O)COc1ccc(-c2nc3cc(N4Cc5cc(N6CCOCC6)ccc5C4=O)ccc3[nH]2)cc1 [Example 51, (4-(5-(5-(morpholin-4-yl)-1-oxo-1,3-dihydro-2H-isoindol-2-yl)-1H-benzimidazol-2-yl)phenoxy)acetic acid] | 963 | 1279 |
| O=C(COc1ccc(-c2nc3cc(N4Cc5cc(N6CCOCC6)ccc5C4=O)ccc3[nH]2)cc1)OCc1ccccc1 [Example 52, benzyl (4-(5-(5-(morpholin-4-yl)-1-oxo-1,3-dihydro-2H-isoindol-2-yl)-1H-benzimidazol-2-yl)phenoxy)acetate] | 937 | 973 |
| O=C1c2ccc(N3CCOCC3)cc2CN1c1ccc2[nH]c(-c3ccc(O)cc3)nc2c1 [Example 53, 2-(2-(4-hydroxyphenyl)-1H-benzimidazol-5-yl)-5-(morpholin-4-yl)isoindolin-1-one] | 880 | 2812 |
| CCCCCCOc1ccc(-c2nc3cc(N4Cc5cc(N6CCOCC6)ccc5C4=O)ccc3[nH]2)cc1 [Example 54, 2-(2-(4-(hexyloxy)phenyl)-1H-benzimidazol-5-yl)-5-(morpholin-4-yl)isoindolin-1-one] | 838 | — |
| O=C1c2ccc(N3CCOCC3)cc2CN1c1ccc2[nH]c(-c3ccc(OCc4ccccc4)cc3)nc2c1 [Example 55, 2-(2-(4-(benzyloxy)phenyl)-1H-benzimidazol-5-yl)-5-(morpholin-4-yl)isoindolin-1-one] | 1092 | — |
| O=C1c2ccc(N3CCOCC3)cc2CN1c1ccc2[nH]c(-c3ccc(Cl)cc3)nc2c1 [Example 56, 2-(2-(4-chlorophenyl)-1H-benzimidazol-5-yl)-5-(morpholin-4-yl)isoindolin-1-one] | 1185 | 897 |
| CCOc1ccc(Cc2nc3cc(N4Cc5cc(N6CCOCC6)ccc5C4=O)ccc3[nH]2)cc1 [Example 57, 2-(2-(4-ethoxybenzyl)-1H-benzimidazol-5-yl)-5-(morpholin-4-yl)isoindolin-1-one] | 778 | 1666 |
| CCCOc1ccc(-c2nc3cc(N4Cc5cc(N6CCOCC6)ccc5C4=O)ccc3[nH]2)cc1 [Example 58, 5-(morpholin-4-yl)-2-(2-(4-propoxyphenyl)-1H-benzimidazol-5-yl)isoindolin-1-one] | 994 | 819 |
| CCOc1ccc(-c2nc3cc(N4Cc5cc(N6CCOCC6)ccc5C4=O)ccc3n2C)cc1 [Example 59, 2-(2-(4-ethoxyphenyl)-1-methyl-1H-benzimidazol-5-yl)-5-(morpholin-4-yl)isoindolin-1-one] | 803 | 1301 |
| CCOc1ccc(-c2nc3ccc(N4Cc5cc(N6CCOCC6)ccc5C4=O)cc3n2C)cc1 [Example 60, 2-(2-(4-ethoxyphenyl)-1-methyl-1H-benzimidazol-6-yl)-5-(morpholin-4-yl)isoindolin-1-one] | 770 | 868 |
| CCOc1ccc(-c2nc3cc(N4Cc5cc(N(C)C)ccc5C4=O)ccc3[nH]2)cc1 [Example 61, 5-(dimethylamino)-2-(2-(4-ethoxyphenyl)-1H-benzimidazol-5-yl)isoindolin-1-one] | 1150 |  |
| CCOc1ccc(-c2nc3cc(N4Cc5cc(N6CCN(C)CC6)ccc5C4=O)ccc3[nH]2)cc1 [Example 62, 2-(2-(4-ethoxyphenyl)-1H-benzimidazol-5-yl)-5-(4-methylpiperazin-1-yl)isoindolin-1-one] | 1004 | — |
| CCOc1ccc(-c2nc3cc(N4Cc5cc(-n6cccc6)ccc5C4=O)ccc3[nH]2)cc1 [Example 63, 2-(2-(4-ethoxyphenyl)-1H-benzimidazol-5-yl)-5-(1H-pyrrol-1-yl)isoindolin-1-one] | 1194 | — |
| CCOc1ccc(-c2nc3cc(N4Cc5cc(N(CC)CC)ccc5C4=O)ccc3[nH]2)cc1 [Example 64, 5-(diethylamino)-2-(2-(4-ethoxyphenyl)-1H-benzimidazol-5-yl)isoindolin-1-one] | 1328 | — |
| CCOc1ccc(-c2nc3cc(N4Cc5cc(N6CCCCC6)ccc5C4=O)ccc3[nH]2)cc1 [Example 65, 2-(2-(4-ethoxyphenyl)-1H-benzimidazol-5-yl)-5-(piperidin-1-yl)isoindolin-1-one] | 1245 | 836 |
